The values that follow come from patent publication US12116359B2, “EBNA1 inhibitor crystalline forms, and methods of preparing and using same” (THE WISTAR INSTITUTE, priority 2018, dated 2024).

Entries after “also recorded” stand apart in the source; their conditions may differ. Read-outs that look alike come from different tables or passages of the source.

Common to all, as to assay type: physicochemical
Series [1] can be described thus: Storage stability of solid forms at elevated temperature/humidity (XRPD, HPLC purity). How it is done:
Purity analysis was performed on an Agilent HP1100 series system equipped with a diode array detector and using ChemStation software vB.04.03 using the method detailed in Table 1.
Amorphous (I) free acid was stored at 40° C./75% RH (open vial), 25° C./97% RH (open vial) and 60° C. (closed vial, ambient humidity) for 8 weeks.
Characterization by XRPD, ^1H NMR, TGA, DSC and storage at 40° C./75% RH for one week was carried out. Details are found in Table 10.

Series [2] can be described thus: Gravimetric vapour sorption (GVS). The following applies: for Hygroscopicity: GVS, 0-90% RH. How it is done:
Sorption isotherms were obtained using a SMS DVS Intrinsic moisture sorption analyzer, controlled by DVS Intrinsic Control software. The sample temperature was maintained at 25° C. by instrument controls. The humidity was controlled by mixing streams of dry and wet nitrogen, with a total flow rate of 200 ml/min. The relative humidity was measured by a calibrated Rotronic probe (dynamic range of 1.0-100% RH), located near the sample. The weight change (mass relaxation) of the sample as a function of % RH was constantly monitored by the microbalance (accuracy ±0.005 mg). Typically 5-20 mg of sample was placed in a tared mesh stainless steel basket under ambient conditions. The sample was loaded and unloaded at 40% RH and 25° C. (typical room conditions). A moisture sorption isotherm was performed as outlined below (2 scans giving 1 complete cycle). The standard isotherm was performed at 25° C. at 10% RH intervals over a 0-90% RH range. Data analysis was carried out using Microsoft Excel. The sample was recovered after completion of the isotherm and re-analyzed by XRPD.

The nature of series [3]: Preliminary solubility assessment in solvents. The settings on record: RT. How it is done: Amorphous (I) free acid (post washing, ca. 20 mg) was dissolved or suspended in a range of solvent systems (using 10 or 20 volumes) at RT. Solutions were placed in a fridge at 4° C. overnight. If no solid was obtained, the solution was then allowed to evaporate at RT. Suspensions were matured between RT-50° C. heat-cool cycles (8 h per cycle) for up to 7 days. Solids were analyzed by XRPD.

The nature of series [4]: Storage stability of solid forms at elevated temperature/humidity (XRPD, HPLC purity). The settings on record: 4 weeks.
Series [5] can be described thus: Further stability experiments on crystalline forms (vacuum drying, grinding, storage). As to the method: Further experiments were carried out, involving heating, vacuum drying and/or grinding the materials in order to assess the stability of the solvated materials and the potential crystallization of an anhydrous form by desolvation.

With `O=C(O)c1cccc(C#Cc2ccc(COC3CCOCC3)cc2)c1-c1ccc2cc[nH]c2c1` [Amorphous (I) free acid, 2-(1H-Indol-6-yl)-3-[4-(tetrahydro-pyran-4-yloxymethyl)-phenylethynyl]-benzoic acid], the “Decrease in chemical purity after storage” value in series [1] (25° C./97% RH, 8 weeks) was 4.0 % (AUC); in series [1] (40° C./75% RH, 8 weeks), 2.0 % (AUC); in series [1] (60° C., 8 weeks) it was 1.1 % (AUC). For the same compound, in series [1] (25° C./97% RH, open vial, 8 weeks), the “XRPD after storage at 25° C./97% RH for 8 weeks” value was “completely amorphous trace by XRPD; also recorded: amorphous traces”. Besides, the “Purity by HPLC after storage at 25° C./97% RH for 8 weeks” value in series [1] (25° C./97% RH, open vial, 8 weeks, initial purity 95.5% (AUC)) is listed as 91.5 % (AUC); in series [1] (25° C./97% RH, open vial, 8 weeks, initial purity 95.5% (AUC), listed as (I) free acid amorphous material) it was “present. 91.5% (AUC) purity”. For the same compound, the “XRPD after storage at 40° C./75% RH for 8 weeks” value in series [1] (40° C./75% RH, open vial, 8 weeks) was “unchanged by XRPD; also recorded: amorphous traces”; in series [1] (40° C./75% RH, open vial, 8 weeks, listed as (I) free acid amorphous material) it was “Unchanged by XRPD”. For the same compound, the “Purity by HPLC after storage at 40° C./75% RH for 8 weeks” value in series [1] (40° C./75% RH, open vial, 8 weeks, initial purity 95.5% (AUC)) is 93.5 % (AUC). In addition, the “XRPD after storage at 60° C. for 8 weeks” value in series [1] (60° C., closed vial, ambient humidity, 8 weeks) is “unchanged by XRPD; also recorded: amorphous traces”; in series [1] (60° C., closed vial, ambient humidity, 8 weeks, listed as (I) free acid amorphous material) it was “Unchanged by XRPD”. The “Purity by HPLC after storage at 60° C. for 8 weeks” value in series [1] (60° C., closed vial, ambient humidity, 8 weeks, initial purity 95.5% (AUC)) is given as 94.4 % (AUC). The Hygroscopicity entry in series [2] and in series [2] (listed as main batch) was “hygroscopic” throughout. Further, in series [2] (after 0-90% RH isotherm, listed as (I) free acid amorphous material), the “XRPD after GVS” value is 0-90% RH with hysteresis. Unchanged by XRPD. Further, the GVS moisture uptake entry in series [2] (between 0-90% RH, 25° C.) is given as “ca. 5.50%”. Further, in series [2] (between 0-90% RH, 25° C.), the “GVS reversible moisture uptake” value was 5.5% w/w reversible moisture uptake between. Moreover, the solubility (in general, the dissolved amount per volume that the medium holds) was over 100 mg/mL in series [3] (1,4-dioxane, organic solvent or mixture, thermodynamic from solid, 1,4-Dioxane, 10 vol, read-out: Solubility assessment 10 vol); over 100 mg/mL in series [3] (2-propanol, organic solvent or mixture, thermodynamic from solid, 2-Propanol, 10 vol, read-out: Solubility assessment 10 vol); over 100 mg/mL in series [3] (acetone, organic solvent or mixture, thermodynamic from solid, Acetone, 10 vol, read-out: Solubility assessment 10 vol); over 100 mg/mL in series [3] (acetone/5% water, organic solvent or mixture, thermodynamic from solid, Acetone/5% water, 10 vol, read-out: Solubility assessment 10 vol); over 100 mg/mL in series [3] (acetonitrile, organic solvent or mixture, thermodynamic from solid, Acetonitrile, 10 vol, read-out: Solubility assessment 10 vol); over 100 mg/mL in series [3] (anisole, organic solvent or mixture, thermodynamic from solid, Anisole, 10 vol, read-out: Solubility assessment 10 vol). The solubility in series [3] (dichloromethane, organic solvent or mixture, thermodynamic from solid, Dichloromethane, 10 vol, read-out: Solubility assessment 10 vol) is over 100 mg/mL; in series [3] (ethanol, organic solvent or mixture, thermodynamic from solid, Ethanol, 10 vol, read-out: Solubility assessment 10 vol), over 100 mg/mL; in series [3] (ethanol/5% water, organic solvent or mixture, thermodynamic from solid, Ethanol/5% water, 10 vol, read-out: Solubility assessment 10 vol) it was over 100 mg/mL; in series [3] (ethyl acetate, organic solvent or mixture, thermodynamic from solid, Ethyl Acetate, 10 vol, read-out: Solubility assessment 10 vol), over 100 mg/mL; in series [3] (heptane, organic solvent or mixture, thermodynamic from solid, Heptane, 10 vol, read-out: Solubility assessment 10 vol), under 100 mg/mL; in series [3] (heptane, organic solvent or mixture, thermodynamic from solid, Heptane, 20 vol, read-out: Solubility assessment 20 vol), under 50 mg/mL. Moreover, the solubility in series [3] (methanol, organic solvent or mixture, thermodynamic from solid, Methanol, 10 vol, read-out: Solubility assessment 10 vol) is over 100 mg/mL; in series [3] (methylethyl ketone, organic solvent or mixture, thermodynamic from solid, Methylethyl Ketone, 10 vol, read-out: Solubility assessment 10 vol), over 100 mg/mL; in series [3] (methylisobutyl ketone (printed Methylisoburyl Ketone), organic solvent or mixture, thermodynamic from solid, Methylisoburyl Ketone, 10 vol, read-out: Solubility assessment 10 vol), over 100 mg/mL; in series [3] (nitromethane, organic solvent or mixture, thermodynamic from solid, Nitromethane, 10 vol, read-out: Solubility assessment 10 vol), under 100 mg/mL; in series [3] (nitromethane, organic solvent or mixture, thermodynamic from solid, Nitromethane, 20 vol, read-out: Solubility assessment 20 vol) it was under 50 mg/mL; in series [3] (tetrahydrofuran, organic solvent or mixture, thermodynamic from solid, Tetrahydrofuran, 10 vol, read-out: Solubility assessment 10 vol), over 100 mg/mL. The solubility was under 100 mg/mL in series [3] (toluene, organic solvent or mixture, thermodynamic from solid, Toluene, 10 vol, read-out: Solubility assessment 10 vol); under 50 mg/mL in series [3] (toluene, organic solvent or mixture, thermodynamic from solid, Toluene, 20 vol, read-out: Solubility assessment 20 vol); under 100 mg/mL in series [3] (water, thermodynamic from solid, Water, 10 vol, read-out: Solubility assessment 10 vol); under 50 mg/mL in series [3] (water, thermodynamic from solid, Water, 20 vol, read-out: Solubility assessment 20 vol).

In the case of `O=C(O)c1cccc(C#Cc2ccc(COC3CCOCC3)cc2)c1-c1ccc2cc[nH]c2c1` [Pattern 1, 2-(1H-Indol-6-yl)-3-[4-(tetrahydro-pyran-4-yloxymethyl)-phenylethynyl]-benzoic acid], the “XRPD after storage at 25° C./97% RH for 4 weeks” value in series [1] (25° C./97% RH, 4 weeks) is reported as “Unchanged by XRPD”; in series [4] (listed as Crystalline (I)), “remained unchanged by XRPD”; in series [4] (listed as crystalline batch) it was “remained unchanged by XRPD”. Further, the “XRPD after storage at 40° C./75% RH for 4 weeks” value in series [1] (40° C./75% RH, 4 weeks) was “Unchanged by XRPD”; in series [4] (listed as Crystalline (I)) it was “remained unchanged by XRPD”; in series [4] (listed as crystalline batch) it was “remained unchanged by XRPD”.

Consider `O=C(O)c1cccc(C#Cc2ccc(COC3CCOCC3)cc2)c1-c1ccc2cc[nH]c2c1` [Pattern 2, 2-(1H-Indol-6-yl)-3-[4-(tetrahydro-pyran-4-yloxymethyl)-phenylethynyl]-benzoic acid], for which the “Grinding and vacuum drying at 55° C.: solvent content” value in series [5] (1H NMR, 0.5 eq. toluene as prepared) amounted to 0.3 eq. toluene. Also, in series [5] (XRPD), the “Grinding and vacuum drying at 55° C.: crystallinity” value is listed as “significant loss of crystallinity; also recorded: Lower crystallinity”. Moreover, the “Vacuum drying 40° C. or 55° C.” value in series [5] (solid form and solvent content by XRPD or 1H NMR) is listed as “Unchanged by XRPD”.

For `O=C(O)c1cccc(C#Cc2ccc(COC3CCOCC3)cc2)c1-c1ccc2cc[nH]c2c1` [Pattern 3, 2-(1H-Indol-6-yl)-3-[4-(tetrahydro-pyran-4-yloxymethyl)-phenylethynyl]-benzoic acid], the “Storage at 40° C./75% RH for 3.5 days” value in series [5] (40° C./75% RH, 3.5 days, XRPD and 1H NMR) was “Unchanged by”.

In the case of `O=C(O)c1cccc(C#Cc2ccc(COC3CCOCC3)cc2)c1-c1ccc2cc[nH]c2c1` [Pattern 4, 2-(1H-Indol-6-yl)-3-[4-(tetrahydro-pyran-4-yloxymethyl)-phenylethynyl]-benzoic acid], in series [1] (40° C./75% RH, 7 days, solid form by XRPD), the “Storage at 40° C./75% RH for 7 days” value is “Unchanged”.
